The values below come from patent US20220033407A1, “N-(pyridin-2-ylsulfonyl)cyclopropanecarboxamide Derivatives and their Use in the Treatment of Disease” (NOVARTIS AG, priority 2018, published 2022).

One experiment concerns the target T1, delF508-CFTR (Homo sapiens, UniProt P13569, DEL508-508).
T1 construct: functional activity of the CFTR channel (Chloride ion transport) in patient derived primary human bronchial epithelial cells; host or cells: patient-derived primary human bronchial epithelial cells (HBECs), delF508-CFTR
Nature of the experiment: delF508-CFTR functional activity in primary human bronchial epithelial cells (HBECs), Multi-Transepithelial Clamp Circuit (MTECC-24) assay, equivalent short circuit current. It is filed as cell-based. Conditions: primary CF HBECs; for MTECC24 CFHBEC-Amax %: relative to reference combination 2 μM 3-(6-(1-(2,2-difluorobenzo[d][1,3]dioxol-5-yl)cyclopropane-1-carboxamido)-3-methylpyridin-2-yl)benzoic acid (24 h) + 0.5 μM N-(2,4-di-tert-butyl-5-hydroxyphenyl)-4-oxo-1,4-dihydroquinoline-3-carboxamide; for EC50: test compound added 24 h before assay, potentiator (S)-3-amino-6-methoxy-N-(3,3,3-trifluoro-2-hydroxy-2-methylpropyl)-5-(trifluoromethyl)picolinamide present at assay, mean of at least two replicates, read-out: MTECC24 CFHBEC-EC50. An outline of the steps: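 Compound acted as corrector on differentiated primary delF508-CFTR bronchial cultures, first 24 h basolaterally, then 45 min both sides before reading. Equivalent short circuit current was recorded during sequential forskolin and potentiator addition. EC50 came from 10-point, 1-in-3 dilution curves against the 0.1% DMSO baseline.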

The next experiment has as its target T2, delF508-CFTR-HRP (Homo sapiens, UniProt P13569, DEL508-508).
T2 construct: expressed in transfected cells
Nature of the experiment: Measurement of delF508-CFTR-HRP surface expression in CFBE41o- cells (HRP luminescence).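 For DelF508-CFTR-HRP Amax %: percent efficacy relative to a reference CFTR corrector compound.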 To be noted: for EC50: mean of at least two replicates; for Emax: CFBE41o-, read-out: DelF508-CFTR-HRP Amax %. It is filed as cell-based. An outline of the steps:
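EC50 derived by logistic regression of triplicate surface-HRP luminescence, plate-normalized to the lowest-concentration median. Doxycycline (500 ng/mL, 48 h) induced delF508-CFTR-HRP in CFBE41o- cells; compounds then applied 24 h at 37° C, 10 μM top, 3-fold over 10 points.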

SMILES strings stand for the structures.

T2 sequence (P13569 with tags, fused parts or gaps DEL508-508): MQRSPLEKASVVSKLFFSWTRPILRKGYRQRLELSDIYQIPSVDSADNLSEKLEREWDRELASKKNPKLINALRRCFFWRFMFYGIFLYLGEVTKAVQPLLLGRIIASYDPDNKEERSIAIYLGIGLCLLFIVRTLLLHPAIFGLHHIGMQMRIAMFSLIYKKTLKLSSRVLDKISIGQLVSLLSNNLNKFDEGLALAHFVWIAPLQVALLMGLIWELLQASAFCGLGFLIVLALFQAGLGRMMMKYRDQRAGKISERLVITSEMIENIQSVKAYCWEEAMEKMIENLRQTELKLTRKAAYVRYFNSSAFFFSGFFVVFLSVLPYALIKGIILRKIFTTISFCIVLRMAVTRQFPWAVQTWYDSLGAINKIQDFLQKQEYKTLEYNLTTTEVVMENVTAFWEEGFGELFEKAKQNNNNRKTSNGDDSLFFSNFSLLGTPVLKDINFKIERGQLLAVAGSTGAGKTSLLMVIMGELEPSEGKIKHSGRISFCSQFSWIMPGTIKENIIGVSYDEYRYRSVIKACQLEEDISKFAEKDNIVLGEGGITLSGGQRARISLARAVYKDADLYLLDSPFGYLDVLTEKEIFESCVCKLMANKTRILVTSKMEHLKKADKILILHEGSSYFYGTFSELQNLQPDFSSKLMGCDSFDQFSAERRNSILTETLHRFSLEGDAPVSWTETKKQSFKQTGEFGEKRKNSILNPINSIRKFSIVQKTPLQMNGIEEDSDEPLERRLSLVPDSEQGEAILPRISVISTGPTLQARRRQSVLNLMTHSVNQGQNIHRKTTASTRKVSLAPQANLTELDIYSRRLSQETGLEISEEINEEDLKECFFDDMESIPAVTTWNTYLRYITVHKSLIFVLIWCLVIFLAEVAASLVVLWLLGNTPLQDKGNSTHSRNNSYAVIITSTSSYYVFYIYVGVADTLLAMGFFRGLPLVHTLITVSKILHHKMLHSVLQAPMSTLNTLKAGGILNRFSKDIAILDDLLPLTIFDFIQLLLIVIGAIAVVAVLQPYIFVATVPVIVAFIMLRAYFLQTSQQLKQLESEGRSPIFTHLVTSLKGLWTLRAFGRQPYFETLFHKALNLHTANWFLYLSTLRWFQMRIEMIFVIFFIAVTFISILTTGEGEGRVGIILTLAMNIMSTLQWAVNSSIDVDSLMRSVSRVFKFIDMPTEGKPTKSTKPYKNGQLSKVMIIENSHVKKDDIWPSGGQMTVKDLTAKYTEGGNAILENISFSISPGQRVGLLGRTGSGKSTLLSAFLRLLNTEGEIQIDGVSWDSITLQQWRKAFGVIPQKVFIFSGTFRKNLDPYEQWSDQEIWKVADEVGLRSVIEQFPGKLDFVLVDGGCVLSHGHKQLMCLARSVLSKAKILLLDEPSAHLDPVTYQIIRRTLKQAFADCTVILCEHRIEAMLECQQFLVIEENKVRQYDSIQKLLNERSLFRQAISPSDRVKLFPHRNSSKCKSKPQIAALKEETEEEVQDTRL
T1 sequence (P13569 with tags, fused parts or gaps DEL508-508): as above

As to `Cc1ccc(C2CCC(C)(C)OC2)c(OC2(C(=O)NS(=O)(=O)c3cccc(N4CCC(O)(C(F)(F)F)CC4)n3)CC2)c1` (single isomer, unassigned) [Example 11-2-2, 1-(2-(6,6-Dimethyltetrahydro-2H-pyran-3-yl)-5-methylphenoxy)-N-((6-(4-hydroxy-4-(trifluoromethyl)piperidin-1-yl)pyridin-2-yl)sulfonyl)cyclopropane-1-carboxamide], at delF508-CFTR, the “MTECC24 CFHBEC-Amax %” value came to 100.3% and the EC50 came out at 757 nM. On delF508-CFTR-HRP, the “DelF508-CFTR-HRP Amax %” value is given as 361.4% and the EC50 worked out at 1780 nM.
Regarding `O=C(NS(=O)(=O)c1cccc(N2CC[C@H](O)C2)n1)C1(Oc2cc(Cl)ccc2N2CCC3(CCCC3)CC2)CC1` [Example 9-13, (S)-1-(5-Chloro-2-(8-azaspiro[4.5]decan-8-yl)phenoxy)-N-((6-(3-hydroxypyrrolidin-1-yl)pyridin-2-yl)sulfonyl)cyclopropanecarboxamide], at delF508-CFTR, the “MTECC24 CFHBEC-Amax %” value amounted to 128.4% and the EC50 was found to be 171 nM. Also, on delF508-CFTR-HRP, the Emax turned out to be 638% and the 50% effective concentration (EC50) came to 1040 nM.
The like results for `Cc1ccc(C2CCCCC2)c(OC2(C(=O)NS(=O)(=O)c3cccc(N4CCC(N)CC4)n3)CC2)c1` [Example 2-41, N-((6-(4-Aminopiperidin-1-yl)pyridin-2-yl)sulfonyl)-1-(2-cyclohexyl-5-methylphenoxy)cyclopropanecarboxamide] were, in that order, 54%, 654 nM, 142% and 2960 nM.
The like results for `Cc1ccc(C2CCCC(F)(F)C2)c(OC2(C(=O)NS(=O)(=O)c3cccc(N)n3)CC2)c1` (stereo not drawn) [Example 1-5, N-((6-Aminopyridin-2-yl)sulfonyl)-1-(2-(3,3-difluorocyclohexyl)-5-methylphenoxy)cyclopropane-1-carboxamide] were, in that order, 94%, 312 nM, 179% and 3960 nM.
As to `Cc1ccc(C)c(OC2(C(=O)NS(=O)(=O)c3cccc(N4CCOC[C@@H]4C)n3)CC2)c1` [Example 4-2, (S)-1-(2,5-Dimethylphenoxy)-N-((6-(3-methylmorpholino)pyridin-2-yl)sulfonyl)cyclopropane-1-carboxamide], at delF508-CFTR, the “MTECC24 CFHBEC-Amax %” value amounted to 34% and the EC50 is 568 nM. Moreover, at delF508-CFTR-HRP, the Emax was found to be 134% and the EC50 turned out to be 4670 nM.
On to `Cc1ccc(C2CCC(C)(C)OC2)c(OC2(C(=O)NS(=O)(=O)c3cccc(N4CCC(O)(c5ccc(Cl)cc5)CC4)n3)CC2)c1` (single isomer, unassigned) [Example 11-1-2, N-((6-(4-(4-chlorophenyl)-4-hydroxypiperidin-1-yl)pyridin-2-yl)sulfonyl)-1-(2-(6,6-dimethyltetrahydro-2H-pyran-3-yl)-5-methylphenoxy)cyclopropane-1-carboxamide], for which, on delF508-CFTR, the “MTECC24 CFHBEC-Amax %” value was determined as 191.0% and the EC50 is 176 nM. On delF508-CFTR-HRP, the “DelF508-CFTR-HRP Amax %” value stood at 819.2% and the EC50 came out at 900 nM.
Take `Cc1ccc(C2CCCCC2)c(OC2(C(=O)NS(=O)(=O)c3cccc(N4CC5(CN(C(=O)OC(C)(C)C)C5)C4)n3)CC2)c1` [Example 2-29, Tert-butyl 6-(6-(N-(1-(2-cyclohexyl-5-methylphenoxy)cyclopropanecarbonyl)sulfamoyl)pyridin-2-yl)-2,6-diazaspiro[3.3]heptane-2-carboxylate]: on delF508-CFTR, the “MTECC24 CFHBEC-Amax %” value came to 76% and the EC50 came out at 63 nM. For the same compound, at delF508-CFTR-HRP, the Emax came out at 626% and a half-maximal effect (EC50) was put at 870 nM.
The corresponding values for `C[C@]1(O)CCN(c2cccc(S(=O)(=O)NC(=O)C3(Oc4cc(Cl)ccc4N4CC5(CCCCC5)C4)CC3)n2)C1` [Example 9-7, (S)-1-(5-Chloro-2-(2-azaspiro[3.5]nonan-2-yl)phenoxy)-N-((6-(3-hydroxy-3-methylpyrrolidin-1-yl)pyridin-2-yl)sulfonyl)cyclopropanecarboxamide] are 131.1%, 123 nM, 472% and 580 nM.
Consider `Cc1ccc(-c2cccc(C(F)(F)F)c2)c(OC2(C(=O)NS(=O)(=O)c3cccc(N4CC[C@@H](O)C4)n3)CC2)c1` [Example 5-11, (R)—N-((6-(3-Hydroxypyrrolidin-1-yl)pyridin-2-yl)sulfonyl)-1-((4-methyl-3′-(trifluoromethyl)-[1,1′-biphenyl]-2-yl)oxy)cyclopropane-1-carboxamide], for which, on delF508-CFTR, the “MTECC24 CFHBEC-Amax %” value turned out to be 68% and the EC50 was 20 nM. For the same compound, at delF508-CFTR-HRP, the Emax amounted to 371% and the response was half-maximal at 2180 nM (EC50).
With `Cc1ccc(-c2cc(F)cc(OCC(C)C)c2)c(OC2(C(=O)NS(=O)(=O)c3cccc(N)n3)CC2)c1` [Example 1-2, N-((6-Aminopyridin-2-yl)sulfonyl)-1-((3′-fluoro-5′-isobutoxy-4-methyl-[1,1′-biphenyl]-2-yl)oxy)cyclopropane-1-carboxamide], on delF508-CFTR, the “MTECC24 CFHBEC-Amax %” value was 89% and the concentration giving a half-maximal response (EC50) was 45 nM. Also, on delF508-CFTR-HRP, the Emax is 136% and the EC50 was determined as 2440 nM.
`O=C(NS(=O)(=O)c1cccc(N2CC[C@H](O)C2)n1)C1(Oc2cc(Cl)ccc2-c2cccc(C(F)(F)F)c2)CC1` [Example 5-2, (S)-1-((4-Chloro-3′-(trifluoromethyl)-[1,1′-biphenyl]-2-yl)oxy)-N-((6-(3-hydroxypyrrolidin-1-yl)pyridin-2-yl)sulfonyl)cyclopropane-1-carboxamide]: on delF508-CFTR, the “MTECC24 CFHBEC-Amax %” value is listed as 62% and the EC50 came out at 99 nM. Moreover, at delF508-CFTR-HRP, the Emax came to 313% and a half-maximal effect (EC50) was put at 1580 nM.
The like results for `Cc1ccc(C2CCCCC2)c(OC2(C(=O)NS(=O)(=O)c3cccc(N4CCC(C)(NC(=O)OC(C)(C)C)CC4)n3)CC2)c1` [Example 2-8, Tert-butyl (1-(6-(N-(1-(2-cyclohexyl-5-methylphenoxy)cyclopropanecarbonyl)sulfamoyl)pyridin-2-yl)-4-methylpiperidin-4-yl)carbamate] were, in that order, 60%, 63 nM, 716% and 540 nM.
On to `Cc1ccc(C2CCCCC2)c(OC2(C(=O)NS(=O)(=O)c3cccc(N4CC(C)(O)C4)n3)CC2)c1` [Example 2-16, 1-(2-Cyclohexyl-5-methylphenoxy)-N-((6-(3-hydroxy-3-methylazetidin-1-yl)pyridin-2-yl)sulfonyl)cyclopropanecarboxamide], for which, at delF508-CFTR, the “MTECC24 CFHBEC-Amax %” value was found to be 101% and the EC50 was 12 nM. Further, at delF508-CFTR-HRP, the Emax turned out to be 642% and a half-maximal effect (EC50) was put at 2520 nM.
With `O=C(NS(=O)(=O)c1cccc(N2CCC(O)(C(F)(F)F)CC2)n1)C1(Oc2cc(Cl)ccc2C2CC3(CCC3)C2)CC1` [Example 7-1, 1-(5-Chloro-2-(spiro[3.3]heptan-2-yl)phenoxy)-N-((6-(4-hydroxy-4-(trifluoromethyl)piperidin-1-yl)pyridin-2-yl)sulfonyl)cyclopropanecarboxamide], at delF508-CFTR, the “MTECC24 CFHBEC-Amax %” value is 203.8% and the EC50 is 132 nM. Moreover, on delF508-CFTR-HRP, the Emax turned out to be 445% and the EC50 came out at 490 nM.
Consider `O=C(NS(=O)(=O)c1cccc(N2CC(O)C2)n1)C1(Oc2cc(Cl)ccc2C2CC3(CCC3)C2)CC1` [Example 7-9, 1-(5-Chloro-2-(spiro[3.3]heptan-2-yl)phenoxy)-N-((6-(3-hydroxyazetidin-1-yl)pyridin-2-yl)sulfonyl)cyclopropane-1-carboxamide], for which, on delF508-CFTR, the “MTECC24 CFHBEC-Amax %” value is 120.3% and the EC50 worked out at 345 nM. In addition, on delF508-CFTR-HRP, the Emax is 300% and the midpoint of the response, the EC50, lay at 2050 nM.
For `Cc1ccc(C2CCCCC2)c(OC2(C(=O)NS(=O)(=O)c3cccc(N4CCC5(CCCC5N)CC4)n3)CC2)c1` (single isomer, unassigned) [Example 2-32-1, N-((6-(1-Amino-8-azaspiro[4.5]decan-8-yl)pyridin-2-yl)sulfonyl)-1-(2-cyclohexyl-5-methylphenoxy)cyclopropanecarboxamide], on delF508-CFTR, the “MTECC24 CFHBEC-Amax %” value stood at 78% and the EC50 is 12 nM. Besides, at delF508-CFTR-HRP, the “DelF508-CFTR-HRP Amax %” value came out at 537% and the EC50 amounted to 3350 nM.
With `Cc1ccc(C2CCCCC2)c(OC2(C(=O)NS(=O)(=O)c3cccc(N4CCC(N)(C(F)(F)F)CC4)n3)CC2)c1` [Example 2-17, N-((6-(4-Amino-4-(trifluoromethyl)piperidin-1-yl)pyridin-2-yl)sulfonyl)-1-(2-cyclohexyl-5-methylphenoxy)cyclopropanecarboxamide], on delF508-CFTR, the “MTECC24 CFHBEC-Amax %” value is reported as 90% and the EC50 came to 4 nM. For the same compound, on delF508-CFTR-HRP, the Emax turned out to be 503% and the EC50 is 730 nM.
For the compound `CC1(O)CCN(c2cccc(S(=O)(=O)NC(=O)C3(Oc4cc(Cl)ccc4C4CC5(CCC5)C4)CC3)n2)CC1` [Example 7-12, 1-(5-Chloro-2-(spiro[3.3]heptan-2-yl)phenoxy)-N-((6-(4-hydroxy-4-methylpiperidin-1-yl)pyridin-2-yl)sulfonyl)cyclopropane-1-carboxamide], at delF508-CFTR, the “MTECC24 CFHBEC-Amax %” value came out at 152.6% and the EC50 came to 195 nM. In addition, on delF508-CFTR-HRP, the Emax was 529% and a half-maximal effect (EC50) was put at 1090 nM.
